Data as given in ChEMBL document CHEMBL5356956, “Optimizing and characterizing 4-methyl substituted pyrazol-3-carboxamides leading to the peripheral cannabinoid 1 receptor inverse agonist TM38837” (Bioorg Med Chem Lett, 2024).
Values after ≈ are worked out from the molar mass of the structure shown. One block for each compound: values may come before it. Active and inactive are the calls of the source. No cut-off for these calls is given here.

What was measured:
[1] = Drug concentration in DIO mouse brain at 10 mg/kg, po measured for 6 hrs relative to plasma concentration; type: ADME, organism-based
[2] = Drug concentration in DIO mouse brain at 10 mg/kg, po measured for 6 hrs; type: ADME, organism-based; conditions: read-out: Drug uptake
[3] = Drug concentration in DIO mouse adipose tissue at 10 mg/kg, po measured for 6 hrs; type: ADME, organism-based; conditions: read-out: Drug uptake
[4] = Drug concentration in DIO mouse liver at 10 mg/kg, po measured for 6 hrs; type: ADME, organism-based; conditions: read-out: Drug uptake
[5] = Drug concentration in DIO mouse adipose tissue assessed as fold increase at 10 mg/kg, po measured for 6 hrs relative to plasma concentration; type: ADME, organism-based; conditions: read-out: FC
[6] = In vivo inverse agonist activity at CB1 receptor in DIO mouse assessed as efficacy at 10 mg/kg, po measured after 6 hrs; type: functional
[7] = Lipophilicity, logD of compound by chromatographic analysis; type: physicochemical
[8] = target: T1, Cannabinoid receptor 1 (Homo sapiens, UniProt P21554); assay: Antagonist activity at human CB1 receptor expressed in CHO-K1 cell membrane in presence of CP55940 by GTP-gamma-S assay; type: functional, cell membranes
T1 sequence (P21554 whole entry): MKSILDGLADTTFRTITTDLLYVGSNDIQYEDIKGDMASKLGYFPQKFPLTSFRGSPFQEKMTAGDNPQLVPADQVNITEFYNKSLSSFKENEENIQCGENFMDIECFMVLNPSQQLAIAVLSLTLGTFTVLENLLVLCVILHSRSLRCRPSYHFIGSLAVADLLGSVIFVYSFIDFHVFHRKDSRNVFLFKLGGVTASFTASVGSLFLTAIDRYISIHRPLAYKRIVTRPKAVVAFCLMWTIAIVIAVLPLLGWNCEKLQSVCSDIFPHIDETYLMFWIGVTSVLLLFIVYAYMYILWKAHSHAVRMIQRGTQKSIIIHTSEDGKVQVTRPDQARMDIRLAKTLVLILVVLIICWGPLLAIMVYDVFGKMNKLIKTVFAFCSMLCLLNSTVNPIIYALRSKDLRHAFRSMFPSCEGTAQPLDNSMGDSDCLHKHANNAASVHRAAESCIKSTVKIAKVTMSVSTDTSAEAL

[9] = target: T1, Cannabinoid receptor 1; assay: Inverse agonist activity at human CB1 receptor expressed in CHO-K1 cell membrane by GTP-gamma-S assay; type: functional, cell membranes
[10] = target: T1, Cannabinoid receptor 1; assay: Inverse agonist activity at human CB1 receptor expressed in African green monkey COS7 cells co-expressing G-protein in presence of CP55940 by IP3 assay; type: functional, cell membranes, Membrane
[11] = target: Cannabinoid receptor 2 (Homo sapiens, UniProt P34972); assay: Inverse agonist activity at human CB2 receptor expressed in CHO-K1 cell membrane in presence of CP55940 by GTP-gamma-S assay; type: functional, cell membranes
Chain of Cannabinoid receptor 2 (P34972 whole entry): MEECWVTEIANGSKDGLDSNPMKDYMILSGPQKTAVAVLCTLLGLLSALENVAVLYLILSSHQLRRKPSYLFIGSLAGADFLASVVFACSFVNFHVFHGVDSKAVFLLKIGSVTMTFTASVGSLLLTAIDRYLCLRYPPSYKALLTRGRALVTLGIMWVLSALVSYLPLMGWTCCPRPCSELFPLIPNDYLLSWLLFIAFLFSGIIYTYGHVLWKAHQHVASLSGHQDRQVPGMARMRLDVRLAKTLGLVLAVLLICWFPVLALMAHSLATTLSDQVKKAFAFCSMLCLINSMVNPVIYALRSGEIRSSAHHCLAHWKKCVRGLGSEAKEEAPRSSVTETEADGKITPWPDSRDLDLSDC

[12] = Subchronic toxicity in DIO mouse assessed as reduction in body weight at 10 mg/kg, po measured after 7 days; type: organism-based; parameters: scale not given: the % may be the effect or the level left; conditions: in vivo, 168 h, time 7 day
[13] = Drug concentration in DIO mouse plasma at 10 mg/kg, po measured for 6 hrs; type: ADME, organism-based
[14] = Drug concentration in DIO mouse adipose tissue at 10 mg/kg, po measured for 6 hrs relative to plasma concentration; type: ADME, organism-based; conditions: other tissue
[15] = Drug concentration in DIO mouse brain at 10 mg/kg, po measured for 24 hrs; type: ADME, organism-based; conditions: for Drug uptake: in vivo, po, 10 mg/kg, 24 h, BLD = below limit of detection
[16] = Clearance in rat hepatocytes assessed per million cells; type: ADME, cell-based, Hepatocyte
[17] = target: hERG (Homo sapiens, UniProt Q12809); assay: Inhibition of hERG at 10 uM by patch clamp assay relative to control; type: toxicity
Chain of hERG (Q12809 whole entry): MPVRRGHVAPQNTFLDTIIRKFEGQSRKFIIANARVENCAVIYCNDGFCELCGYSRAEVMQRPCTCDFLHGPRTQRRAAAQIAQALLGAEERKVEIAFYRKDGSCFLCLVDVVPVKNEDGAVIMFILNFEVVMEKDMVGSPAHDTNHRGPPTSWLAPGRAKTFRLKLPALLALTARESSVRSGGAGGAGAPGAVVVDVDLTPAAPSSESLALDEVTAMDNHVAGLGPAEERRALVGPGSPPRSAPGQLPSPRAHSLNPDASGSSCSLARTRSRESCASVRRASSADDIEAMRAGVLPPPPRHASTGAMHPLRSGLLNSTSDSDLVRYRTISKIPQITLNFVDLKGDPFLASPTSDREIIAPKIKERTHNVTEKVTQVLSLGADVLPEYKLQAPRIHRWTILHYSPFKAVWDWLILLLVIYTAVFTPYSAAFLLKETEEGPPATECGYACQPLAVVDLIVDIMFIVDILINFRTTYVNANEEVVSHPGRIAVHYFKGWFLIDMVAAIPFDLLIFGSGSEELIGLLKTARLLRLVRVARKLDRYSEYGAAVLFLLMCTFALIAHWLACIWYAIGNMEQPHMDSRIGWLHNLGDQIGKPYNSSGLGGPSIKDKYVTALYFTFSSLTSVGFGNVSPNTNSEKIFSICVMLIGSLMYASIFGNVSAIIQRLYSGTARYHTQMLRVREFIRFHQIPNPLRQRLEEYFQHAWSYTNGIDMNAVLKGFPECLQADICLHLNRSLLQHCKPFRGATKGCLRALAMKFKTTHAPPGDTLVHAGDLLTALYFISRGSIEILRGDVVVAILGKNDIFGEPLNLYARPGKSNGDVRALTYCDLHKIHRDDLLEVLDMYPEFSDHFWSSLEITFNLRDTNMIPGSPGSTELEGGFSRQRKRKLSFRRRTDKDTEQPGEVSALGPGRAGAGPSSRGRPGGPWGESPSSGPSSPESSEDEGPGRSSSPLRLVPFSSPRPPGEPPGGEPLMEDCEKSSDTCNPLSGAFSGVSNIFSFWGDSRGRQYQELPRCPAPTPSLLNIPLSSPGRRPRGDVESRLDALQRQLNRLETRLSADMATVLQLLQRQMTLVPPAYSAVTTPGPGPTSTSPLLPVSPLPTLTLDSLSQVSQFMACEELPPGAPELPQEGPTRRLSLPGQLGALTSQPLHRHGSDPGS

[18] = target: CYP2C9 (Homo sapiens, UniProt P11712); assay: Inhibition of CYP2C9 (unknown origin) at 10 uM relative to control; type: ADME
Chain of CYP2C9 (P11712 whole entry): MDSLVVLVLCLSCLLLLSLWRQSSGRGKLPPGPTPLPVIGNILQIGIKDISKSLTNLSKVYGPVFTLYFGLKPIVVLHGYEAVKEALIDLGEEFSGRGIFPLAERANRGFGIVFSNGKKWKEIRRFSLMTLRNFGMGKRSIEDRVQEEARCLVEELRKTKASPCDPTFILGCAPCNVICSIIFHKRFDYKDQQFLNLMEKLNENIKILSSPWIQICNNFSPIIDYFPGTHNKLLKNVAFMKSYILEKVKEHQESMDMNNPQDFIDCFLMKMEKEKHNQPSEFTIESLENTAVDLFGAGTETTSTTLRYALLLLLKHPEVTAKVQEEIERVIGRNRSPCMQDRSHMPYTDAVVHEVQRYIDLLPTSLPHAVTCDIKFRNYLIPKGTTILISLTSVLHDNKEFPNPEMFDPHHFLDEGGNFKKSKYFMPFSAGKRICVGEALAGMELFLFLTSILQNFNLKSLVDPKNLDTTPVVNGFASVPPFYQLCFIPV

[19] = Drug uptake in brain of lean C57BL/6J mouse by autoradiography; type: ADME, tissue-based; conditions: in vivo
[20] = target: T2, Glucose-dependent insulinotropic receptor (Homo sapiens) (UniProt Q8TDV5); assay: Inhibition of GPR119 (unknown origin) at 1 uM relative to control
T2 sequence (whole entry): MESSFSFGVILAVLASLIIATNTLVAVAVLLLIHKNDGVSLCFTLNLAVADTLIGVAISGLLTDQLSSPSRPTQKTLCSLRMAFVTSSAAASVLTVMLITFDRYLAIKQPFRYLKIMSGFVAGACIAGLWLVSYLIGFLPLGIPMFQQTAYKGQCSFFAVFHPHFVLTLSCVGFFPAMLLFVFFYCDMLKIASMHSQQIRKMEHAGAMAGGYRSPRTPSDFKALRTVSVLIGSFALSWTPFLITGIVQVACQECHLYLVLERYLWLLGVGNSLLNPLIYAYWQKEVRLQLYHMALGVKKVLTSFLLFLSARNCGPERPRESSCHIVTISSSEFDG

[21] = target: G-protein coupled receptor 55 (Homo sapiens) (UniProt Q9Y2T6); assay: Inhibition of GPR55 (unknown origin) at 1 uM relative to control
Chain of G-protein coupled receptor 55 (Homo sapiens) (Q9Y2T6 whole entry): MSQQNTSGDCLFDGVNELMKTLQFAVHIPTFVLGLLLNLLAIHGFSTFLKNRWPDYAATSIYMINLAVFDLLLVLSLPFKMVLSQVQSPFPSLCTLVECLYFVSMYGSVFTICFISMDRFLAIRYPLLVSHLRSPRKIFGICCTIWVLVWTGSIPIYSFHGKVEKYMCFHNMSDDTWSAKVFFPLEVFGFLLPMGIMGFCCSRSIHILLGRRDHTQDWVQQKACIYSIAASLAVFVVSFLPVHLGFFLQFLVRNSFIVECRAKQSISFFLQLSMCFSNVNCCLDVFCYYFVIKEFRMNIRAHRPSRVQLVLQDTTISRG

[22] = system: Liver; assay: In vivo inhibition of CB1 receptor in liver of lean C57BL/6J mouse by autoradiography; type: functional, organism-based
[23] = Solubility of compound; type: physicochemical
[24] = Half life in NMRI mouse at 2 mg/kg, iv; type: ADME, organism-based; conditions: in vivo
[25] = Clearance in NMRI mouse at 2 mg/kg, iv; type: ADME, organism-based; conditions: in vivo
[26] = Volume of distribution at steady state in NMRI mouse at 2 mg/kg, iv; type: ADME, organism-based; conditions: in vivo, read-out: Vdss
[27] = Cmax in NMRI mouse at 10 mg/kg, po; type: ADME, organism-based; parameters: dose 10 mg/kg, route po; conditions: in vivo
[28] = Tmax in NMRI mouse at 10 mg/kg, po; type: ADME, organism-based; conditions: in vivo
[29] = Half life in NMRI mouse at 10 mg/kg, po; type: ADME, organism-based; conditions: in vivo
[30] = Oral bioavailability in NMRI mouse at 10 mg/kg; type: ADME, organism-based; conditions: in vivo
[31] = AUC (infinity) in NMRI mouse at 2 mg/kg, iv; type: ADME, organism-based; parameters: dose 2 mg/kg, route iv; conditions: in vivo
[32] = AUC (infinity) in NMRI mouse at 10 mg/kg, po; type: ADME, organism-based; parameters: dose 10 mg/kg, route po; conditions: in vivo
[33] = Cmax in NMRI mouse at 30 mg/kg, po; type: ADME, organism-based; parameters: dose 30 mg/kg, route po; conditions: in vivo
[34] = Tmax in NMRI mouse at 30 mg/kg, po; type: ADME, organism-based; conditions: in vivo
[35] = Half life in NMRI mouse at 30 mg/kg, po; type: ADME, organism-based; conditions: in vivo
[36] = AUC (infinity) in NMRI mouse at 30 mg/kg, po; type: ADME, organism-based; parameters: dose 30 mg/kg, route po; conditions: in vivo
[37] = Oral bioavailability in NMRI mouse at 30 mg/kg; type: ADME, organism-based; conditions: in vivo
[38] = Protein binding in NMRI mouse plasma; type: ADME, cell-free; conditions: read-out: PPB
[39] = Efflux ratio of permeability in human Caco-2 cells; type: ADME, cell-based
[40] = Drug concentration in NMRI mouse brain relative to plasma concentration; type: ADME, tissue-based
[41] = target: Voltage-gated inwardly rectifying potassium channel KCNH2 (Homo sapiens, UniProt Q12809); assay: Inhibition of hERG by patch clamp assay; type: toxicity
Chain of Voltage-gated inwardly rectifying potassium channel KCNH2 (Q12809 whole entry): as the sequence (Q12809 whole entry) above

Compound: C[C@@H](NC(=O)c1nn(-c2ccccc2Cl)c(-c2ccc(Cl)cc2)c1Cc1nn[nH]n1)c1ccc(OC(F)(F)F)cc1
Drug uptake [1]: 1.3% | concentration at 6 h [2]: 0.16 µM | concentration at 6 h [3]: 4 µM | concentration at 6 h [4]: 35 µM | Kp at 6 h [5]: 5 | Efficacy [6]: 11% | chromatographic logD [7]: 2.9 | IC50 [8]: 9.6 nM | IC50 [9]: 21 nM | IC50 [10]: 4.8 nM | IC50 [11]: > 10000 nM | Activity [12]: 11.8% | concentration at 6 h [13]: 12 µM

Compound: NC(=O)Cc1c(C(=O)N2CCC(O)(c3ccc(F)cn3)CC2)nn(-c2ccccc2Cl)c1-c1ccc(Cl)cc1
IC50 [9]: 1.8 nM | CLH [16]: 18 µL/min/1e6 cells | inhibition at 10 µM [17]: 38%

Compound: C[C@@H](NC(=O)c1nn(-c2ccccc2Cl)c(-c2ccc(Cl)cc2)c1Cc1nn[nH]n1)c1ccc(C(F)(F)F)cc1
inhibition at 10 µM [18]: 39% | Drug uptake [19]: Active | Drug uptake [1]: 1.3% | concentration at 6 h [2]: 0.08 µM | concentration at 24 h ([15]; brain, read-out: Drug uptake): 0.02 µM | concentration at 6 h [3]: 1.2 µM | concentration at 6 h [4]: 47 µM | Kp at 6 h [5]: 5 | Efficacy [6]: 11% | inhibition [20]: < 30% | inhibition [21]: < 30% | inhibition [22]: Active | chromatographic logD [7]: 2.8 | IC50 [8]: 6.7 nM | IC50 [9]: 24 nM | IC50 [10]: 3.3 nM | IC50 [11]: 4500 nM | solubility [23]: 250 µM (≈ 147 µg/mL) | CLH [16]: 16 µL/min/1e6 cells | half-life [24]: 2.5 h | clearance [25]: 2.6 mL/min/kg | Vd [26]: 0.4 L/kg | Cmax [27]: 13 µM | Tmax [28]: 2 h | half-life [29]: 3.1 h | bioavailability [30]: 95% | AUC(0-inf) [31]: 22 µM·h | AUC(0-inf) [32]: 104 µM·h | Cmax [33]: 41 µM | Tmax [34]: 2 h | half-life [35]: 4 h | AUC(0-inf) [36]: 297 µM·h | bioavailability [37]: 91% | fraction unbound [38]: < 0.01 | efflux ratio [39]: 1 | Drug uptake [40]: ~ 1% | Activity [12]: 11.4% | concentration at 6 h [13]: 6.5 µM

Compound: NC(=O)Cc1c(C(=O)NC2CCN(C(=O)C3CC3)CC2)nn(-c2ccccc2Cl)c1-c1ccc(Cl)cc1
solubility [23]: 81 µM (≈ 43.8 µg/mL) | CLH [16]: 18 µL/min/1e6 cells | inhibition at 10 µM [17]: 24%

Now from value to compound, other results behind:

Drug uptake [14]: 4% | Drug uptake [1]: 0.8% | concentration at 6 h [2]: 0.07 µM | Drug uptake [15]: Bld | concentration at 6 h [3]: 0.35 µM | concentration at 6 h [4]: 9.5 µM | chromatographic logD [7]: 2.7 | IC50 [8]: 18 nM | IC50 [9]: 300 nM | IC50 [10]: 18 nM | IC50 [11]: > 10000 nM | concentration at 6 h [13]: 9 µM
Compound: O=C(O)Cc1c(C(=O)N2CCC(c3ccc(F)cc3)CC2)nn(-c2ccccc2Cl)c1-c1ccc(Cl)cc1
Activity [12]: 0.2%

Drug uptake [14]: 4% | Drug uptake [1]: 0.6% | concentration at 6 h [2]: 0.22 µM | Drug uptake [15]: Bld | concentration at 6 h [3]: 1.5 µM | concentration at 6 h [4]: 10 µM | chromatographic logD [7]: 2.6 | IC50 [8]: 4.8 nM | IC50 [9]: 51 nM | IC50 [10]: 2.9 nM | IC50 [11]: > 10000 nM | half-life [24]: 3.1 h | clearance [25]: 2.1 mL/min/kg | Vd [26]: 0.6 L/kg | Cmax [27]: 47 µM | Tmax [28]: 0.5 h | half-life [29]: 2.2 h | bioavailability [30]: 88% | fraction unbound [38]: < 0.01 | efflux ratio [39]: 1.3 | Drug uptake [40]: ~ 1% | concentration at 6 h [13]: 38 µM
Compound: O=C(O)Cc1c(C(=O)N2CCC(c3ccccc3F)CC2)nn(-c2ccccc2Cl)c1-c1ccc(Cl)cc1
Activity [12]: 6.4%

IC50 [9]: 0.45 nM | IC50 [10]: 1.8 nM | IC50 [11]: 7900 nM | CLH [16]: 8 µL/min/1e6 cells
Compound: NC(=O)Cc1c(C(=O)N2CCC(O)(c3ccc(F)cc3)CC2)nn(-c2ccccc2Cl)c1-c1ccc(Cl)cc1
inhibition at 10 µM [17]: 93% | IC50 [41]: 800 nM
